Series [1] can be described thus: MRT (0 to 24 hrs) in Sprague-Dawley rat at 5 mg/kg, iv. Conditions: in vivo. It counts as ADME, organism-based.
Series [2] in a line: MRT (0 to infinity) in Sprague-Dawley rat at 20 mg/kg, ip. Format: ADME, organism-based. The conditions noted are these: in vivo.
The nature of series [3]: Half life in Sprague-Dawley rat at 20 mg/kg, ip. It counts as ADME, organism-based. Conditions: in vivo.
The nature of series [4]: Cmax in Sprague-Dawley rat at 20 mg/kg, ip. Set-up: dose 20 mg/kg, route ip. It counts as ADME, organism-based. Conditions: in vivo.
Series [5] is described as follows: Tmax in Sprague-Dawley rat at 20 mg/kg, ip. Conditions: in vivo. It counts as ADME, organism-based.
Series [6] can be described thus: Half life in Sprague-Dawley rat at 5 mg/kg, iv. Format: ADME, organism-based. The conditions noted are these: in vivo.
The nature of series [7]: MRT (0 to infinity) in Sprague-Dawley rat at 5 mg/kg, iv. It counts as ADME, organism-based. Conditions: in vivo.
The nature of series [8]: MRT (0 to 24 hrs) in Sprague-Dawley rat at 20 mg/kg, ip. It counts as ADME, organism-based. Conditions: in vivo.
A short description of series [9]: AUC (0 to infinity) in Sprague-Dawley rat at 5 mg/kg, iv. It counts as ADME, organism-based. Set-up: dose 5 mg/kg, route iv. Conditions: in vivo.
Series [10] can be described thus: Cytotoxicity against mouse peritoneal macrophages assessed as reduction in cell viability incubated for 24 hrs by Cell titer-blue assay. Format: toxicity, cell-based, Peritoneal macrophage. Background: The colour change of resazurin is a common sign of viable cells or microbes.
A short description of series [11]: AUC (0 to 24 hrs) in Sprague-Dawley rat at 20 mg/kg, ip. It counts as ADME, organism-based. Set-up: dose 20 mg/kg, route ip. The conditions noted are these: in vivo.
Series [12] is described as follows: AUC (0 to 24 hrs) in Sprague-Dawley rat at 5 mg/kg, iv. It counts as ADME, organism-based. Set-up: dose 5 mg/kg, route iv. The conditions noted are these: in vivo.
Series [13] is described as follows: AUC (0 to infinity) in Sprague-Dawley rat at 20 mg/kg, ip. Format: ADME, organism-based. Set-up: dose 20 mg/kg, route ip. The conditions noted are these: in vivo.
The nature of series [14]: Clearance in Sprague-Dawley rat at 20 mg/kg, ip. It counts as ADME, organism-based. Conditions: in vivo.
Series [15] can be described thus: Clearance in Sprague-Dawley rat at 5 mg/kg, iv. It counts as ADME, organism-based. Conditions: in vivo.
The nature of series [16]: Apparent volume of distribution in Sprague-Dawley rat at 20 mg/kg, ip. It counts as ADME, organism-based. Conditions: in vivo.
The nature of series [17]: Apparent volume of distribution in Sprague-Dawley rat at 5 mg/kg, iv. Format: ADME, organism-based. Conditions: in vivo, read-out: Vz.
Series [18] concerns Peritoneal macrophage. Nature of the series: Antiinflammatory activity in mouse peritoneal macrophages assessed as fold reduction in LPS-induced TNFalpha level at 10 uM incubated for 4 hrs by ELISA method. Format: functional. (In general: In an ELISA, binding on a coated surface is turned into a signal by an enzyme label.)
Series [19] can be described thus: Aqueous solubility of the compound in PBS at pH 2 at 2 mg incubated for 24 hrs by HPLC-UV analysis. It counts as physicochemical.
Series [20] is described as follows: Aqueous solubility of the compound in PBS at pH 7 at 2 mg incubated for 24 hrs by HPLC-UV analysis. Format: physicochemical.
Series [21] in a line: Aqueous solubility of the compound in PBS at pH 7.4 at 2 mg incubated for 24 hrs by HPLC-UV analysis. It counts as physicochemical.
In series [22] the target is Keap1/Nrf2 (Homo sapiens) (UniProt Q16236+Q14145). Nature of the series: Binding affinity to human Keap1-Nrf2 protein-protein interaction assessed as dissociation constant (Kd2) incubated for 60 mins by fluorescent polarization assay.
The test system of series [23] is Peritoneal macrophage. Nature of the series: Antiinflammatory activity in mouse peritoneal macrophages assessed as reduction in LPS-induced IL6 level at 10 uM incubated for 4 hrs by ELISA method. Format: functional, cell-based.
For series [24], the system named is Mus musculus. Nature of the series: Antiinflammatory activity in LPS-induced C57BL/6 mouse model of […] assessed as inhibition of TNFalpha expression in lung tissue at 2.5 to 10 mg/kg, ip pretreated with compound for 30 mins followed by LPS stimulation and measured after 6 hrs by qRT-PCR analysis. Format: functional, organism-based. The conditions noted are these: dose 2.5-10 mg/kg, time 390.0 min. For orientation: In qPCR the cycle at which signal appears reflects the starting amount.

Series [25] has as its system Mus musculus. Put plainly: Antiinflammatory activity in LPS-induced C57BL/6 mouse model of […] assessed as inhibition of IL1beta expression in lung tissue at 2.5 to 10 mg/kg, ip pretreated with compound for 30 mins followed by LPS stimulation and measured after 6 hrs by qRT-PCR analysis. Format: functional, organism-based. The conditions noted are these: dose 2.5-10 mg/kg, time 390.0 min.

Series [26] concerns Mus musculus. Put plainly: Antiinflammatory activity in LPS-induced C57BL/6 mouse model of […] assessed as inhibition of IL6 expression in lung tissue at 2.5 to 10 mg/kg, ip pretreated with compound for 30 mins followed by LPS stimulation and measured after 6 hrs by qRT-PCR analysis. Format: functional, organism-based. Conditions: dose 2.5-10 mg/kg, time 390.0 min.

Series [27] has as its system Mus musculus. Nature of the series: Antiinflammatory activity in LPS-induced C57BL/6 mouse model of […] assessed as inhibition of TNFalpha level in BALF administered intraperitoneally pretreated with compound for 30 mins followed by LPS stimulation and measured after 6 hrs by ELISA method. Format: functional, organism-based. The conditions noted are these: dose 2.5-10 mg/kg, route ip, time 390.0 min.

For series [28], the system named is Mus musculus. Put plainly: Antiinflammatory activity in LPS-induced C57BL/6 mouse model of […] assessed as inhibition of IL1beta level in BALF administered intraperitoneally pretreated with compound for 30 mins followed by LPS stimulation and measured after 6 hrs by ELISA method. It counts as functional, organism-based. The conditions noted are these: dose 2.5-10 mg/kg, route ip, time 390.0 min.

The subject of series [29] is Mus musculus. Nature of the series: Antiinflammatory activity in LPS-induced C57BL/6 mouse model of […] assessed as inhibition of IL6 level in BALF administered intraperitoneally pretreated with compound for 30 mins followed by LPS stimulation and measured after 6 hrs by ELISA method. It counts as functional, organism-based. The conditions noted are these: dose 2.5-10 mg/kg, route ip, time 390.0 min.

Series [30] deals with Mus musculus. Nature of the series: Antiinflammatory activity in LPS-induced C57BL/6 mouse model of […] assessed as Nrf2 nuclear translocation in lung tissue at 2.5 to 10 mg/kg, ip pretreated with compound for 30 mins followed by LPS stimulation and measured after 6 hrs by Western blotting analysis. Format: functional, organism-based. Conditions: dose 2.5-10 mg/kg, time 390.0 min.

The subject of series [31] is Mus musculus. Put plainly: Antiinflammatory activity in LPS-induced C57BL/6 mouse model of […] assessed as reduction in inflammatory cell infiltrations in lung tissue at 2.5 to 10 mg/kg, ip pretreated with compound for 30 mins followed by LPS stimulation and measured after 6 hrs by hematoxylin and eosin staining method. Format: functional, organism-based. Conditions: dose 2.5-10 mg/kg, time 390.0 min.

In series [32] the test system is Mus musculus. Nature of the series: Antiinflammatory activity in LPS-induced C57BL/6 mouse model of […] assessed as reduction in bleeding points in lung tissue at 2.5 to 10 mg/kg, ip pretreated with compound for 30 mins followed by LPS stimulation and measured after 6 hrs by hematoxylin and eosin staining method. It counts as functional, organism-based. The conditions noted are these: dose 2.5-10 mg/kg, time 390.0 min.

For series [33], the system named is Mus musculus. Put plainly: Antiinflammatory activity in LPS-induced C57BL/6 mouse model of […] assessed as reduction in congestion in lung tissue at 2.5 to 10 mg/kg, ip pretreated with compound for 30 mins followed by LPS stimulation and measured after 6 hrs by hematoxylin and eosin staining method. Format: functional, organism-based. Conditions: dose 2.5-10 mg/kg, time 390.0 min.

Series [34] can be described thus: Oral bioavailability in Sprague-Dawley rat. It counts as ADME, organism-based. The conditions noted are these: in vivo.

Values after ≈ are worked out from the molar mass of the structure shown. Active and inactive are the calls of the source. The calls are words filed in the database; no cut-off is given here. A value given as a limit tells only on which side of the number the result lay.

From ChEMBL document CHEMBL5338809, “Fragment-Based Discovery of Azocyclic Alkyl Naphthalenesulfonamides as Keap1-Nrf2 Inhibitors for Acute Lung Injury Treatment” (J Med Chem, 2023) come the findings set out here.

Broadly, the MRT last is the average time that molecules of a dose stay in the body. As a reminder, the MRT inf is a mean duration of stay, worked out from the concentration-time curve. A word on the half-life: it is the time in which the quantity being followed falls by half. One may read the Cmax as the maximum level reached in the sampled fluid or tissue. The Tmax is the time at which the peak concentration occurs. In general, AUC(0-inf) refers to total exposure, with the tail of the curve extrapolated. A higher AUC(0-inf) goes with high exposure. Usually CC50 stands for the concentration at which the toxic effect on the cells reaches its halfway point. What is called AUC(0-t) is exposure summed from dosing to a finite time, without extrapolation to infinity. High values mean high exposure, low ones low exposure. By CL/F is commonly meant the apparent clearance, not corrected for the fraction that reaches the circulation. Broadly, the clearance is the volume of plasma or blood freed of the substance per unit of time. Low values mean inefficient removal, high ones efficient removal. For orientation: solubility means the dissolved amount per volume that the medium holds. What is called bioavailability is dose-corrected exposure relative to a reference, in per cent. Higher therefore signals good availability.

Sequence of Keap1/Nrf2 (Homo sapiens) (Q14145 whole entry, looked up): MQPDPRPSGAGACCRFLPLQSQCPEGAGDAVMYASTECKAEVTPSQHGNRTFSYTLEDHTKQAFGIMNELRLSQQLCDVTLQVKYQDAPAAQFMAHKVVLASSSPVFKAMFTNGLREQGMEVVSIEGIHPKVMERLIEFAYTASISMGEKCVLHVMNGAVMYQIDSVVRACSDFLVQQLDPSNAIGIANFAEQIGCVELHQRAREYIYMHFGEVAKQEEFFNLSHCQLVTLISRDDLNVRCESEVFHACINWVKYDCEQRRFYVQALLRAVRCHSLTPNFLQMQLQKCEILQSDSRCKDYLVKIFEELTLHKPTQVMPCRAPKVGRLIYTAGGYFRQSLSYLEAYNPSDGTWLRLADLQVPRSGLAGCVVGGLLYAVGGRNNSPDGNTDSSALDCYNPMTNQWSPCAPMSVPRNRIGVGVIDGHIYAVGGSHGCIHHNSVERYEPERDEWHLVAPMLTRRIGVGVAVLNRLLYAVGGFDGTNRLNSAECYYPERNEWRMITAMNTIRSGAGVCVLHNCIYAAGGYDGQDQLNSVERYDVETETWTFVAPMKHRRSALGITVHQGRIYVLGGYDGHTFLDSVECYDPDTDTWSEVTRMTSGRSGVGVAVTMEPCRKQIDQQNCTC
Sequence of Keap1/Nrf2 (Homo sapiens) (Q16236 whole entry, looked up): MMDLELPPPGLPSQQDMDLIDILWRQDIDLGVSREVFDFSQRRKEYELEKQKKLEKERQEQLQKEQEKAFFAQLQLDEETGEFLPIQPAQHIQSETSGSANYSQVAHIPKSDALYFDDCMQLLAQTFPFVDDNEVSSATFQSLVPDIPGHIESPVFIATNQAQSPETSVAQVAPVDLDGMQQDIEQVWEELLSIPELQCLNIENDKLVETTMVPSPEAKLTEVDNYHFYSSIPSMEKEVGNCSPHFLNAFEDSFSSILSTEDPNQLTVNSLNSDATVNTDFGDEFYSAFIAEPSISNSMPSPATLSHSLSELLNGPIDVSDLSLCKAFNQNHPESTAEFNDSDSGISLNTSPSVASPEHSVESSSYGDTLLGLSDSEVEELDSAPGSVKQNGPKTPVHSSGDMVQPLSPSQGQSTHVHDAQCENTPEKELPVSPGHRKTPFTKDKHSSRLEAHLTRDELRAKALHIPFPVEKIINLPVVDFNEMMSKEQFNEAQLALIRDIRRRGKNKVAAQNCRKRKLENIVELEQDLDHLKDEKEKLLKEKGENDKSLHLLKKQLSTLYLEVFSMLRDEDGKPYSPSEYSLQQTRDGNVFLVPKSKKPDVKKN

On to `COc1ccc(S(=O)(=O)N(CC(N)=O)c2ccc(N(CC(N)=O)S(=O)(=O)c3ccc(NC(=O)[C@H]4CCN4)cc3)c3ccccc23)cc1` [listing 1 of 2 here], for which the MRT last in series [1] was found to be 2.83 h; in series [8] it was 1.75 h. Further, the MRT inf in [2] amounted to 1.97 h; in [7] it was 9.67 h. Further, the figures for the half-life in [3] and in [6] were 5.75 h and 12.7 h, respectively. For the same compound, the concentration in [4] peaked (Cmax) at 8430 ng/mL. The Tmax in series [5] came to 0.38 h. Moreover, the AUC(0-inf) turned out to be 1590 ng·h/mL in [9] and 11200 ng·h/mL in [13]. Moreover, in series [10], the CC50 at 24 h was above 100 µM. For the same compound, the AUC(0-t) in [11] was determined as 11200 ng·h/mL; in series [12], 1390 ng·h/mL. In series [14], this compound gave a CL/F of 31.8 mL/min/kg. In addition, the clearance in [15] is 57.4 mL/min/kg. The Vz in series [16] was 16.24474 L/kg. For the same compound, the Vd in series [17] came out at 60.5 L/kg. Further, in [18], the “fold change (FC)” value is on record as “<=0.5”. Also, the solubility at 24 h in series [19] was 601 µg/mL (≈ 883 µM); in series [20], 404 µg/mL (≈ 593 µM); in series [21], 216 µg/mL (≈ 318 µM).
For `COc1ccc(S(=O)(=O)N(CC(N)=O)c2ccc(N(CC(N)=O)S(=O)(=O)c3ccc(NC(=O)[C@H]4CCN4)cc3)c3ccccc23)cc1` [listing 2 of 2 here], the K in series [22] came to 220 nM. For the same compound, the result in series [23], in series [30], in [31], in series [32] and in [33] was Active. Further, the inhibition result in series [24], in [25] and in series [26] was “Active” throughout. The inhibition entry in series [27], in [28] and in series [29] was “Dose-Dependent Effect” in each case.
As for `CCN1CCN(CCC(=O)Nc2ccc(S(=O)(=O)N(CC(N)=O)c3ccc(N(CC(N)=O)S(=O)(=O)c4ccc(OC)cc4)c4ccccc34)cc2)CC1.Cl`, the bioavailability in [34] is 20%.
